# Measured values reported in patent US12351580B2, “NLRP3 modulators” (Innate Tumor Immunity, Inc., priority 2017, dated 2025).
# Molecular target: T1, hNLRP3 (Homo sapiens, UniProt Q96P20)
# T1 construct: THP-1 cells were purchased from the American Type Culture Collection; host or cells: THP-1 cells, PMA-differentiated
# Test: Measurement of IL-1β production in PMA-differentiated THP-1 cells (hNLRP3 agonist; ELISA, alternative and hTRF procedures)
# Assay type: cell-based
# Summary of the method: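 PMA-differentiated THP-1 cells (PMA […] 24 h, 20 μg/ml overnight, or 50 ng/ml overnight, by procedure) replated in RPMI with 2% FBS and exposed to compound (e.g. 100–0.1 μM, 1% DMSO; hTRF format top 10 μM) for 4 h, 2 h, or 2 h respectively. Supernatant IL-1β measured by ELISA, or by hTRF with antibodies diluted 1:40.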
# T1 sequence (Q96P20 whole entry): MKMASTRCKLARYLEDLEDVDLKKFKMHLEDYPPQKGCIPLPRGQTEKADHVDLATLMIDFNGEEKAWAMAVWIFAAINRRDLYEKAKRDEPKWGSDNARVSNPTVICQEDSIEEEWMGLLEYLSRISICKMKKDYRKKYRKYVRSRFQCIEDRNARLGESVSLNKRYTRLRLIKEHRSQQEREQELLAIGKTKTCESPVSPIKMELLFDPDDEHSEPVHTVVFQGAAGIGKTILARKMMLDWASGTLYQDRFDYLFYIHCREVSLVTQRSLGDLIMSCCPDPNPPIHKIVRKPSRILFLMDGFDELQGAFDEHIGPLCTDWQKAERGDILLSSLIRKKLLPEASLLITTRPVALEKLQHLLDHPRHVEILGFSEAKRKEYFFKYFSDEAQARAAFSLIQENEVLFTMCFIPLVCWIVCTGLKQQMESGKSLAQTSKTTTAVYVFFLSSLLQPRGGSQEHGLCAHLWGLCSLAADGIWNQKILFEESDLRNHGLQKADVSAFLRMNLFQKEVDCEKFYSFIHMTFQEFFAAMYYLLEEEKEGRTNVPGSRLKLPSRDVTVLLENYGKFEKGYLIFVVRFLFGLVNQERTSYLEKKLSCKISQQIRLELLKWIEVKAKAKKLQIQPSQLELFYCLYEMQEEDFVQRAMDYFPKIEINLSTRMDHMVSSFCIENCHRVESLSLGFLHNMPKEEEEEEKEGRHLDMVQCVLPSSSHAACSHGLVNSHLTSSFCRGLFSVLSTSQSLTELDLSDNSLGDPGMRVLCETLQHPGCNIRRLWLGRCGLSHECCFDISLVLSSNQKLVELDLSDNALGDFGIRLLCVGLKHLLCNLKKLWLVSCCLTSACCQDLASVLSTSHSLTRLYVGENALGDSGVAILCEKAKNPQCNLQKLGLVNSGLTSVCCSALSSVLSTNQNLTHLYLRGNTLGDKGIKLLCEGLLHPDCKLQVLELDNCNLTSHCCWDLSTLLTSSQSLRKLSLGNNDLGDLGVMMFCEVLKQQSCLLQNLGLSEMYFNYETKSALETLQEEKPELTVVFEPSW
row,Structure (SMILES),EC50 [µM]
1,CCN(Cc1nc2c(N)nc3cc(-c4ccc(C)cc4)ccc3c2[nH]1)C(C)=O [Compound 422],0.28
2,"Nc1nc2cc(C3CCCCCC3)ccc2c2[nH]c(CN3CCCC3=O)nc12 [Compound 332, 1-[(4-amino-7-cycloheptyl-1H-imidazo[4,5-c]quinolin-2-yl)methyl]pyrrolidin-2-one]",3.3
3,"Nc1nc2cc(-c3ccc(C(F)(F)F)nc3)ccc2c2[nH]c(CN3CCCC3=O)nc12 [Compound 324, 1-[[4-amino-746-(trifluoromethyppyridin-3-yl]-1H-imidazo[4,5-c]quinolin-2-yl]methyl]pyrrolidin-2-one]",6.7
4,CCN(Cc1nc2c(N)nc3cc(-c4ccn(C)n4)ccc3c2[nH]1)C(=O)OC(C)(C)C [Compound 393],7.11
5,Nc1nc2cc(-n3cccn3)ccc2c2[nH]c(CN3C[C@@H](c4ccccc4)CC3=O)nc12 [Compound 357],0.64
6,CCN(Cc1nc2c(N)nc3cc(-c4cc[nH]n4)ccc3c2[nH]1)C(=O)OC [Compound 406],1.37
7,"COc1ncccc1-c1ccc2c(c1)nc(N)c1nc(CN3CCCC3=O)[nH]c12 [Compound 319, 1-[[4-amino-7-(2-methoxypyridin-3-yl)-1H-imidazo[4,5-c]quinolin-2-yl]methyl]pyrrolidin-2-one]",6.2
8,"Nc1nc2cc(-c3cncc(F)c3)ccc2c2[nH]c(CN3CCCC3=O)nc12 [Compound 331, 1-[[4-amino-7-(5-fluoropyridin-3-yl)-1H-imidazo[4,5-c]quinolin-2-yl]methyl]pyrrolidin-2-one]",3.2
9,COc1ccc(Cn2c(CN3CCN(C)C3=O)nc3c(N)nc4cc(-c5cc[nH]n5)ccc4c32)cc1 [Compound 403],3.66
10,"N#Cc1ccccc1-c1ccc2c(c1)nc(N)c1nc(CN3CCCC3=O)[nH]c12 [Compound 315, 2-[4-amino-2-[(2-oxopyrrolidin-l-yl)methyl]-1H-imidazo[4,5-c]quinolin-7-yl]benzonitrile]",1.18
11,Nc1nc2cc(-c3cc[nH]n3)ccc2c2[nH]c(CN3C[C@H](c4ccccc4)CC3=O)nc12 [Compound 408],5.23
12,COC(=O)N(C)Cc1nc2c(N)nc3cc(-c4cc[nH]n4)ccc3c2[nH]1 [Compound 405],2.19
13,CCN(Cc1nc2c(N)nc3cc(-c4cc[nH]n4)ccc3c2n1C)C(=O)OC(C)(C)C [Compound 420],0.19
14,"CCN(Cc1nc2c(N)nc3cc(-c4cc[nH]n4)ccc3c2[nH]1)C(=O)c1ccc(Cl)cc1 [Compound 452, N-{[4-amino-7-(1H-pyrazol-3-yl)-1H-imidazo[4,5-c]quinolin-2-yl]methyl}-4-chloro-N-ethylbenzamide]",1.2
15,CN(Cc1nc2c(N)nc3cc(-c4cc[nH]n4)ccc3c2[nH]1)C(=O)c1ccccc1 [Compound 376],3.6
16,"N#Cc1ccc(-c2ccc3c(c2)nc(N)c2nc(CN4CCCC4=O)[nH]c23)cn1 [Compound 327, 5-[4-amino-2-[(2-oxopyrrolidin-l-yl)methyl]-1H-imidazo[4,5-c]quinolin-7-yl]pyridine-2-carbonitrile]",13
17,CCN(Cc1nc2c(N)nc3cc(-c4cc[nH]n4)ccc3c2[nH]1)C(=O)C1CC1 [Compound 118],1.36
18,"CCN(Cc1nc2c(N)nc3cc(-c4cc[nH]n4)ccc3c2[nH]1)C(=O)c1cccn1C [Compound 446, N-{[4-amino-7-(1H-pyrazol-3-yl)-1H-imidazo[4,5-c]quinolin-2-yl]methyl}-N-ethyl-1-methyl-1H-pyrrole-2-carboxamide]",0.67
19,"CCOC(=O)N(CC)Cc1nc2c(N)nc3cc(-c4cc[nH]n4)ccc3c2[nH]1 [Compound 436, Ethyl N-{[4-amino-7-(1H-pyrazol-3-yl)-1H-imidazo[4,5-c]quinolin-2-yl]methyl}-N-ethylcarbamate]",1.3
20,CN(Cc1nc2c(N)nc3cc(-c4cc[nH]n4)ccc3c2[nH]1)S(C)(=O)=O [Compound 115],0.9
21,"Nc1nc2cc(-c3ccc(F)nc3)ccc2c2[nH]c(CN3CCCC3=O)nc12 [Compound 330, 1-[[4-amino-7-(6-fluoropyridin-3-yl)-1H-imidazo[4,5-c]quinolin-2-yl]methyl]pyrrolidin-2-one]",1.6
22,CNCc1nc2c(N)nc3cc(-c4cc[nH]n4)ccc3c2[nH]1 [Compound 401],1.23
23,CN(C)C(=O)CCCn1c(CN2CCCC2=O)nc2c(N)nc3cc(Cl)ccc3c21 [Compound 337],80
24,CCN(C=O)Cc1nc2c(N)nc3cc(-c4cc[nH]n4)ccc3c2[nH]1 [Compound 379],2
25,CNCc1nc2c(N)nc3cc(-n4cccn4)ccc3c2[nH]1 [Compound 402],1.31
26,CN1CCN(Cc2nc3c(N)nc4cc(-c5cc[nH]n5)ccc4c3[nH]2)C1=O [Compound 368],3.9
27,"Nc1nc2cc(-c3cccs3)ccc2c2[nH]c(CN3CCCC3=O)nc12 [Compound 309, 1-[(4-amino-7-thiophen-2-yl-1H-imidazo[4,5-c]quinolin-2-yl)methyl]pyrrolidin-2-one]",0.24
28,COC(=O)CCCn1c(CN2CCCC2=O)nc2c(N)nc3cc(Br)ccc3c21 [Compound 341],2.1

row,Structure (SMILES),EC50 [µM]
1,COc1ccc(Cn2c(Cn3cnccc3=O)nc3c(N)nc4cc(-c5cc[nH]n5)ccc4c32)cc1 [Compound 414],3.83
2,CCNCc1nc2c(N)nc3cc(-c4cccs4)ccc3c2[nH]1 [Compound 399],1.06
3,CCN(Cc1nc2c(N)nc3cc(-c4ccsc4)ccc3c2[nH]1)C(=O)OC(C)(C)C [Compound 397],1.05
4,"Nc1nc2cc(-c3cccnc3)ccc2c2[nH]c(CN3CC(c4ccccc4)CC3=O)nc12 (stereo not shown) [Compound 333, 1-[(4-amino-7-pyridin-3-yl-1H-imidazo[4,5-c]quinolin-2-yl)methyl]-4-phenylpyrrolidin-2-one]",1.9
5,N#Cc1ccc(-c2ccc3c(c2)nc(N)c2nc(CN4CCCC4=O)[nH]c23)cc1 [Compound 434],15.5
6,"CCN(Cc1nc2c(N)nc3cc(-c4cc[nH]n4)ccc3c2[nH]1)C(=O)c1cnccn1 [Compound 442, N-{[4-amino-7-(1H-pyrazol-3-yl)-1H-imidazo[4,5-c]quinolin-2-yl]methyl}-N-ethylpyrazine-2-carboxamide]",2.6
7,"Nc1nc2cc(Br)ccc2c2[nH]c(CN3CC(c4ccccc4)CC3=O)nc12 (stereo not shown) [Compound 316, 1-[(4-amino-7-bromo-1H-imidazo[4,5-c]quinolin-2-yl)methyl]-4-phenylpyrrolidin-2-one]",1.1
8,Nc1nc2cc(-n3cccn3)ccc2c2[nH]c(CN3CCCCC3=O)nc12 [Compound 423],0.62
9,Nc1nc2ccccc2c2[nH]c(CN3CCCCC3=O)nc12 [Compound 346],17.3
10,"CCN(Cc1nc2c(N)nc3cc(-c4cc[nH]n4)ccc3c2[nH]1)C(=O)c1ccccn1 [Compound 439, N-{[4-amino-7-(1H-pyrazol-3-yl)-1H-imidazo[4,5-c]quinolin-2-yl]methyl}-N-ethylpyridine-2-carboxamide]",5.7
11,COC(=O)CCCn1c(CN2CCCC2=O)nc2c(N)nc3ccccc3c21 [Compound 335],6.5
12,COC(=O)CCCn1c(CN2CCCCC2=O)nc2c(N)nc3ccccc3c21 [Compound 347],41
13,"CCN(Cc1nc2c(N)nc3cc(-c4cc[nH]n4)ccc3c2[nH]1)C(=O)Cc1cccc(C)c1 [Compound 437, N-{[4-amino-7-(1H-pyrazol-3-yl)-1H-imidazo[4,5-c]quinolin-2-yl]methyl}-N-ethyl-2-(3-methylphenyl)acetamide]",1.1
14,CCN(Cc1nc2c(N)nc3cc(-c4cc[nH]n4)ccc3c2[nH]1)C(=O)c1nccs1 [Compound 114],1.04
15,COc1ccc(Cn2c(CN3C(=O)OCC3c3ccccc3)nc3c(N)nc4cc(-c5cc[nH]n5)ccc4c32)cc1 (stereo not shown) [Compound 409],2.36
16,CCN(C)Cc1nc2c(N)nc3cc(-c4cc[nH]n4)ccc3c2[nH]1 [Compound 349],0.6
17,CN(C)Cc1nc2c(N)nc3cc(-c4cc[nH]n4)ccc3c2[nH]1 [Compound 348],0.89
18,CCN(Cc1nc2c(N)nc3cc(-c4cc[nH]n4)ccc3c2[nH]1)C(=O)CN(C)C [Compound 383],3.6
19,"CCN(Cc1nc2c(N)nc3cc(-c4cc[nH]n4)ccc3c2[nH]1)C(=O)c1cn(C)c2ccccc12 [Compound 451, N-{[4-amino-7-(1H-pyrazol-3-yl)-1H-imidazo[4,5-c]quinolin-2-yl]methyl}-N-ethyl-1-methyl-1H-indole-3-carboxamide]",1.3
20,CCN(Cc1nc2c(N)nc3cc(-c4cncc(F)c4)ccc3c2[nH]1)C(C)=O [Compound 427],5
21,"N#Cc1cncc(-c2ccc3c(c2)nc(N)c2nc(CN4CCCC4=O)[nH]c23)c1 [Compound 326, 5-[4-amino-2-[(2-oxopyrrolidin-l-yl)methyl]-1H-imidazo[4,5-c]quinolin-7-yl]pyridine-3-carbonitrile]",2.7
22,"CCN(Cc1nc2c(N)nc3cc(-c4cc[nH]n4)ccc3c2[nH]1)C(=O)CCC(C)C [Compound 445, N-{[4-amino-7-(1H-pyrazol-3-yl)-1H-imidazo[4,5-c]quinolin-2-yl]methyl}-N-ethyl-4-methylpentanamide]",0.74
23,"Nc1nc2cc(-c3cncc(Cl)c3)ccc2c2[nH]c(CN3CCCC3=O)nc12 [Compound 328, 1-[[4-amino-7-(5-chloropyridin-3-yl)-1H-imidazo[4,5-c]quinolin-2-yl]methyl]pyrrolidin-2-one]",4.1
24,CCN(Cc1nc2c(N)nc3cc(-c4cc[nH]n4)ccc3c2[nH]1)C(=O)C1COC1 [Compound 417],7.4
25,Nc1nc2cc(-n3cccn3)ccc2c2[nH]c(CN3C[C@H](c4ccccc4)CC3=O)nc12 [Compound 358],0.63
26,CCNCc1nc2c(N)nc3cc(-c4ccsc4)ccc3c2[nH]1 [Compound 400],1.79
27,Nc1nc2cc(-c3cc[nH]n3)ccc2c2[nH]c(CN3C[C@@H](c4ccccc4)CC3=O)nc12 [Compound 407],6.55
